According to patent US20220249596A1, “PIC1 PEPTIDE COMPOSITIONS AND METHODS OF USE THEREOF FOR TREATMENT OF HYPOXIC ISCHEMIC ENCEPHALOPATHY” (REALTA HOLDINGS, LLC, priority 2019, published 2022):
No end group written: not given here.

Tests used:
Type in all cases: in vivo, rat
[1] = test system: systemic complement activity; experiment: Complement hemolytic assay (sensitized human erythrocytes) with plasma of injected neonatal rats
Description: Complement activity was assayed in plasma after i.p. injection of PIC1 in term-equivalent neonatal rats. At post-natal day 7 (P7; day of birth=P1), the rat brain is histologically similar to that of a 32- to 34-week gestation human fetus or newborn infant, i.e., cerebral cortical neuronal layering is complete, the germinal matrix is involuting, and white matter as yet has undergone little myelination. Hypoxic-ischemic brain damage in the 7-day-old rat pups is induced with unilateral common carotid artery ligation followed by systemic hypoxia produced by the inhalation of 8% oxygen/balance nitrogen, at constant temperature (37° C.) (Vanucci et al. 2005. Dev Neurosci, Vol. 27, pages 81-86).
Timed pregnant Wistar rats (Hilltop Lab Animals Inc., Scottdale, Pa.) were purchased at embryonic day 19, housed individually, and allowed to deliver spontaneously. Pups were randomized on the day of birth to control for the litter effect (10/litter). At P10-12 (term-equivalent), pups were randomly assigned to 4 different treatment groups: no intervention (control), normothermia (NT), hypothermia-treated vehicle controls (HT), and treatment (PIC1). NT and HT animals were injected with the vehicle used to suspend PIC1. Experimental animals underwent unilateral carotid ligation followed by exposure to hypoxia (8% O2/balanced nitrogen, Vannucci model) for 45 minutes. Pups in the HT group were placed in open jars in a temperature controlled chamber set to 28-30° C. to maintain a target rectal temperature of 31-32° C. for 6 hours, while pups in the control, NT, and PIC1 groups were kept in a separate chamber at 37° C. Pups in the PIC1 group were injected with 2 doses of PIC1 (160 mg/kg, i.p.), with the first dose at the time of carotid ligation, and the second dose four hours later. After intervention, pups were placed back with the dam, and harvested at different time points.
Cobra-venom factor (CVF) was injected i.p. into one group of animals to deplete complement activity in vivo 24 hours prior to carotid ligation. On the day of surgery, a group of animals was injected with 160 mg/kg of PIC1 i.p. at the time of carotid ligation. The animals were harvested at 0.5-48 hours after injection, and plasma was collected by cardiac puncture.
Human AB erythrocytes were derived from healthy human volunteers. The erythrocytes were sensitized as described in Bonaparte et al. using rat anti-human glycophorin A IgG (LifeSpan Biosciences, Inc., Seattle, Wash.). Sensitized cells (5×10^7), serum, and GVBS^++ (Veronal-buffered saline, 0.1% gelatin, 0.15 mM CaCl2, and 1.0 mM MgCl) were combined in a total volume of 375 μl , and incubated for 1 hour at 37° C. in borosilicate glass tubes. […] The tubes were centrifuged and the absorbance of the supernatants was measured in a spectrophotometer at 412 nm.

[2] = test system: TMEM119 (microglia); experiment: TMEM119 and Iba1/TMEM119 staining of cortex; details: 48 hours after injury
Description: After blocking for one hour at room temperature, tissues were incubated with 1:300 goat anti-Iba1 (Abcam), 1:250 goat anti-GFAP (Abcam), 1:500 chicken anti-NeuN (Millipore, Billerica, Mass.), or 1:100 mouse anti-NeuN (Millipore) in host appropriate blocking serum overnight at 4° C. Primary antibodies were probed with 1:500 donkey anti-goat (Abcam), goat anti-chicken (Abcam), or goat anti-mouse (Abcam) AF 488 or 568 in appropriate blocking serum for one hour at room temperature. Tissues were blocked a second time with NGS for one hour at room temperature. Samples were then probed with 1:300 mouse anti-C1q (Abcam), 1:300 rabbit anti-C9, 1:50 rabbit anti-MPO (Abcam), 1:200 rabbit anti-TMEM (Novus Bio, Centennial, Colo.), 1:100 rabbit anti-C3aR (Bioss), 1:100 Mouse anti-C5aR (Hycult), or 1:200 chicken anti-C3/C3a (Abcam) in NGS overnight at 4° C. and then with 1:500 goat anti-mouse, rabbit, or chicken (Abcam) AF 488 or 568 in NGS for one hour at room temperature.
Accordingly, a more specific microglial marker was used to differentiate microglia from infiltrated peripheral macrophages. TMEM119 is a reliable microglial marker that discriminates resident microglia from blood-derived macrophages in the brain [21].

[3] = Novel object recognition test; details: 8 weeks after HIE, versus HT and NT animals, P<0.05
Description: The novel object recognition test was performed at 8 weeks after HIE to test cognitive function by evaluating the differences in the exploration time of novel and familiar objects. The novel object recognition task tests for short-term, intermediate and long-term memory without the need for external motivation, reward, or punishment. Results on the test are influenced by both hippocampal and cortical injury. The test is based on the concept that when animals are exposed to a familiar and a novel object, they spend more time exploring the novel object. It is thought that the recognition of novelty requires more cognitive skills from the subject.
Rats were trained for two days prior to novel object testing. During the training sessions, the rat was allowed to explore the testing chamber, a polycarbonate box (40×40 cm) with two identical objects for three minutes. On testing day, one of the familiar objects was replaced with a novel object, made with the same material but a different shape, and allowed to explore for three minutes. Video recordings of the interactions were reviewed by blinded investigators. Object exploration was defined as the rat directing its nose toward the object at a distance of less than 2 cm. The DINOR was calculated as ((time with novel object−time with familiar object))/(total time spent with objects).

IALILEPICCQERAA-dPEG24 (cysteine pairing not given here) [PIC1]
inhibition of systemic complement activation ([1]; 30 minutes after i.p. injection, 160 mg/kg, plasma): 70% | return of complement activity to baseline, time after injection ([1]; gradual return after i.p. injection, 160 mg/kg): ≤ 8 h | systemic complement inhibition at 0.5, 1, 2 and 4 hours after injection ([1]; versus untreated NT animals, P<0.05): significant systemic complement inhibition | complement activity at 8, 16 and 48 hours after injection ([1]; versus untreated controls): comparable to that of untreated controls | combined Iba1/TMEM119 staining in the cortex ([2]; versus NT and HT animals): almost two-fold decrease | TMEM119 expression in the cortex ([2]; versus NT brains): almost a three-fold decrease | novel object recognition: proportion of time exploring the novel object [3]: significantly higher proportion of time
